One assay concerns IFN-γ. The assay is described as follows: IFN-γ ELISA of DC/T-cell co-culture supernatant. To be noted: 72 h co-culture supernatant, compared to T cells alone. It is filed as cell-based, human. On the procedure: Production of cytokines in the supernatants was determined using commercially available ELISA kits (Cloud-Clone Corporation, Wuhan, China) according to the protocol of the manufacturer. Approximately 50 μl of supernatant and different concentration standards were added and mixed with 100 μl of horseradish peroxidase (HRP) labeled detection antibody against a 96-well plate, respectively, except for the blank control. After incubation at 37°C for 60 min, we washed the plate five times. Add substrate A and substrate B 50 μl respectively, incubate for 15min in a 37°C incubator in dark. Then, 50 μl of stop solution was added and a 450 nm absorbance value (OD value) was measured within 15 min. The regression equation of the standard curve is calculated according to the concentration of the standard substance and the OD value, and the corresponding sample concentration is calculated on the basis of the regression equation.
For orientation: In an ELISA, binding on a coated surface is turned into a signal by an enzyme label.

For another assay, the system named is U87. Briefly: Granzyme A and perforin ELISA, T cells with U87. Format: cell-based, human. As to conditions: T cells stimulated by TSA-treated U87, E:T 50:1, 4 h. As for the experimental part: (§1) The human glioma cell lines (U87-MG and U251) were obtained from the Cell Bank of Type Culture Collection of the Chinese Academy of Science (Shanghai, China). […] A3656), valproic acid (VPA, CAS No. 99-66-1), and trichostatin A (TSA, CAS No. 58880-19-6) were purchased from Sigma-Aldrich Corporation (St. Louis, MO, USA). DAC and TSA were dissolved in DMSO to a concentration of 10 mM. Aliquots were stored at −80°C and diluted with media before being used. […] Four hours later, suspended cells were collected for CD107a flow cytometry, meanwhile, the supernatant was collected and analyzed with granzyme A and perforin ELISA kit (Cloud-Clone Corporation, Wuhan, China) at 450 nm, and the LDH kit (Promega, USA) at 490 nm. The percentage of specific lysis was calculated using the following formula: [(experimental release − spontaneous release)/(maximum release − spontaneous release)] × 100. […] Then, the cytotoxicity assay was measured and calculated as mentioned above.

The test system of a further assay is U87 cell-derived tumors. Briefly: In vivo xenograft tumor model. Details: species or system BALB/C nude female mice. As for the experimental part:
Eighteen BALB/C nude female mice aged 4 weeks were provided by the Guangxi Experimental Animal Center. The mice were placed in a light-controlled room at 24 ± 1 °C (light: 7:00–19:00 h, dark: 19:00–7:00 h) and fed under specific pathogen-free conditions. All protocols followed the guidelines of the National Research Council for the Care and Use of Laboratory Animals and were approved by the Animal Ethics Committee of Guangxi Medical University. To develop a xenograft model, 4 × 10^6 U87 cells were inoculated into the flanks of the mice subcutaneously. Two weeks later, mice simultaneously received intraperitoneal peritumorally injections of TSA (0.5 mg/kg) and 1 × 10^7 peptides loaded on CD8^+ T cells, respectively. Every […], tumor volumes were measured simultaneously with a caliper. Mice were sacrificed by euthanasia when visibly ill. Mice injected with negative peptide-induced CTLs and CTLs without peptides were included as controls. The tumor volumes were calculated using the following formula: tumor volume = [(width2 × length)/2].

The next assay concerns U251. Briefly: Granzyme A and perforin ELISA, T cells with U251. Format: cell-based, human. To be noted: T cells incubated with DAC + TSA-treated U251, E:T 50:1, 4 h. On the procedure:
as §1

The next assay relates to HLA-A2. The assay is described as follows: HLA-A2 expression in U87. It is filed as cell-based, human. To be noted: TSA 1 μM 24 h. On the procedure: The human glioma cell lines (U87-MG and U251) were obtained from the Cell Bank of Type Culture Collection of the Chinese Academy of Science (Shanghai, China). […] A3656), valproic acid (VPA, CAS No. 99-66-1), and trichostatin A (TSA, CAS No. 58880-19-6) were purchased from Sigma-Aldrich Corporation (St. Louis, MO, USA). DAC and TSA were dissolved in DMSO to a concentration of 10 mM. Aliquots were stored at -80°C and diluted with media before being used. Drug treatments were divided into seven groups: (1) DAC group: cells were cultured in medium on the presence of 1 μM DAC for 120 h; (2) VPA group: cells were grown in medium containing 1 mM VPA for 120 h; (3) TSA group: cells were cultured in medium supplemented with 1 μM TSA for 24 h; (4) D + V group: cells were cultured with 1 μM DAC and 1 mM VPA for 120 h; (5) D + T group: cells were cultured with 1 μM DAC for 120 h, followed by 1 μM TSA for 24 h; (6) Control group: cells were cultured with 0.09% DMSO, which is the highest concentration of DMSO used in this study in consideration of the potential toxicity of DMSO to living cells. […] The cells were then harvested, washed with PBS buffer three times, and analyzed by a FACScan flow cytometer (BD Biosciences, Franklin Lakes, NJ, USA) using BD AccuriTM C6 Software (BD Biosciences).

Consider CLPPPNVIL [Peptide P8], for which, in the assay with IFN-γ, the “IFN-γ secretion by T cells (ELISA)” value was “high levels of IFN-γ”. Also, the “granzyme A and perforin secreted by T cells” value is “the most granzyme A and perforin” in the assay on U87; “the most granzyme A and perforin” in the assay with U251. Moreover, the tumor volume entry in the assay on U87 cell-derived tumors (U87 xenograft, 1 × 10^7 peptide-specific CD8+ T cells, compared with DC + Tc and NC-DC + Tc groups) is “significantly reduced”.
With `CC(/C=C/C(=O)NO)=C\[C@@H](C)C(=O)c1ccc(N(C)C)cc1` [TSA, trichostatin A], the “granzyme A and perforin secreted by T cells” value with U87 was “more granzyme A and perforin”. The HLA-A2 levels entry in the assay on HLA-A2 is recorded as “elevated HLA-A2 levels with statistical significance”. The tumor volume result with U87 cell-derived tumors (U87 pre-treated with TSA versus U87, both inoculated with P8-specific T cells, TSA 0.5 mg/kg) is listed as “smaller”. Besides, the tumor growth result with U87 cell-derived tumors (group treated with TSA versus group treated without TSA) is reported as “slower”.

The record behind these values is PMC9382192, “Combined treatment with epigenetic agents enhances anti-tumor activity of MAGE-D4 peptide-specific T cells by upregulating the MAGE-D4 expression in glioma” (Frontiers in Oncology, 2022).
